Experimental data taken from patent publication US20240058450A1, “BCL-XL Inhibitory Compounds Having Low Cell Permeability and Antibody Drug Conjugates Including the Same” (AbbVie Inc., priority 2014, published 2024).
Like-named read-outs stand apart in the source and are kept apart here.

Columns and labels:
[1] = system: Molt-4 human acute lymphoblastic leukemia cells; assay: Molt-4 cell viability assay (CellTiter-Glo, 48 hours, 10% HS); assay type: cell-based; conditions: Homo sapiens, MOLT-4, 48 h, non-permeabilized cells
Outline: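 Cells were seeded at 12,500 per well in medium with 10% human serum and exposed to a 3-fold compound dilution series from 10 μM to 0.0005 μM. After 48 h, viable cells were quantified by CellTiter-Glo luminescence. Each concentration was run in duplicate on at least 3 occasions.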

[2] = biological target: Bcl-xL (Homo sapiens, UniProt Q07817); assay: Time Resolved-Fluorescence Resonance Energy Transfer (TR-FRET) binding assay, competition with probe F-Bak
Outline: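 TR-FRET binding assay run at room temperature for 2 h after mixing compound with Bcl-xL protein, F-Bak probe and Tb-labelled antibody. Test compounds diluted from a 2× 50 μM stock. Ki values derived via Wang's equation from 520/495 nm emission under 340 nm excitation, in the absence of serum or with 1% HS.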

[3] = system: permeabilized Molt-4 cells; assay: JC-1 percent depolarization assay in digitonin permeabilized Molt-4 cells; assay type: cell-based; conditions: Homo sapiens
Excerpt: In addition to cytochrome c release, mitochondria undergoing apoptosis frequently lose their transmembrane mitochondrial membrane potential (Bouchier-Hayes et al., 2008, Methods 44(3): 222-228). JC-1 is a cationic carbocyanine dye that accumulates in mitochondria and fluoresces red when mitochondria are healthy and is lost when the mitochondrial membrane is compromised (percentage depolarization; Smiley et al., 1991, Proc. Natl. Acad. Sci. USA, 88: 3671-3675; Reers et al., 1991: Biochemistry, 30: 4480-4486). This loss in signal can be detected in permeabilized cells using a fluorimeter (excitation 545 nm and emission of 590 nm) and is therefore fully quantitative, enhancing both reproducibility and throughput. Specifically, digitonin permeabilized molt-4 cells (75,000/well) were treated with Bcl-xL inhibitors (1000 nM-0.00 nM) for up to 180 minutes at 32° C., with fluorescence determined every 10 minutes. At the maximal signal, the percentage depolarization can be determined for each time concentration of Bcl-xL inhibitors according to the formula:
% Depolarization=1−[(Sample−FCCP)/(DMSO−FCCP)]
DMSO and FCCP (10 μM) are used as negative and positive controls respectively (Ryan & Letai, 2013, Methods 61(2): 156-164). EC50 values were subsequently determined from the resulting concentration-response curves. Good alignment was observed when the ability of Bcl-xL inhibitors to induce cytochrome c release was compared to loss in JC-1 fluorescence in permeabilized Molt-4 cells.

[4] = system: permeabilized Bcl-xL dependent Molt-4 cells; assay: Cytochrome C release in selectively (digitonin) permeabilized Molt-4 cells; assay type: cell-based, human; conditions: Homo sapiens, MOLT-4, 4 h, 4 h treatment, read-out: Molt-4 Permeabilized Cyt C Release
Outline: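 Bcl-xL-dependent Molt-4 cells (1×10^6) treated 4 h at 37° C, 5% CO2 with compound in half-log dilutions from 3.0 to 0.01 μM. Plasma membrane selectively permeabilized with digitonin to wash out cytosolic cytochrome C released from mitochondria; release measured as apoptosis proxy.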

[5] = system: circulating platelets; conditions: mouse, in vivo
[6] = system: circulating platelets; assay: Number of circulating platelets in mice after a single intraperitoneal injection (thrombocytopenia); conditions: for thrombocytopenia: after injection of the compound; for Lowest thrombocyte count / Time to lowest count: single intraperitoneal injection
[7] = in the presence of 1% HS, read-out: Bcl-xL Binding Ki (nM, 1% HS)
[8] = without HS, read-out: Bcl-xL Binding Ki

Chain of Bcl-xL (Q07817 whole entry): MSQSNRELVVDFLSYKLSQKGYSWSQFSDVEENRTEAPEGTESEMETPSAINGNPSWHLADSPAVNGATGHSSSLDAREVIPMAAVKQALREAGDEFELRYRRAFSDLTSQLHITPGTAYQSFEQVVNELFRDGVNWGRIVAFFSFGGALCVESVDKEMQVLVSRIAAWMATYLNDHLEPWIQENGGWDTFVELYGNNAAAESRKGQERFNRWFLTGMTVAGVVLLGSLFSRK

| SMILES | EC50 [1] [nM] | Ki [2, 7] [nM] | Ki [2, 8] [nM] | EC50 [3] [nM] | other results |
| --- | --- | --- | --- | --- | --- |
| Cc1c(-c2ccc(N3CCc4cccc(C(=O)Nc5nc6ccccc6s5)c4C3)nc2C(=O)O)cnn1CC12CC3(C)CC(C)(C1)CC(OCCNCC[C@@H](O)[C@H](O)[C@H](O)CO)(C3)C2 [Example 1.77, 1-{[2-({3-[(4-{6-[8-(1,3-benzothiazol-2-ylcarbamoyl)-3,4-dihydroisoquinolin-2 (1H)-yl]-2-carboxypyridin-3-yl}-5-methyl-1H-pyrazol-1-yl)methyl]-5,7-dimethyltricyclo[3.3.1.1^3,7]dec-1-yl}oxy)ethyl]amino}-1,2-dideoxy-D-arabino-hexitol] | 837 | 0.166 | < 0.01 | 0.099 | – |
| CC1(C)CCC(c2ccc(Cl)cc2)=C(CN2CCN(c3ccc(C(=O)NS(=O)(=O)c4ccc(N[C@H](CCN5CCOCC5)CSc5ccccc5)c(S(=O)(=O)C(F)(F)F)c4)cc3)CC2)C1 [Navitoclax] | – | – | – | – | thrombocytopenia [5]: caused thrombocytopenia; time of maximal thrombocytopenia following injection [5]: 6 h; Time to lowest count ([5]; ip, 100 mg/kg): 6 h; Lowest thrombocyte count ([5]; ip, 100 mg/kg, 6 h): 10 1/10^3 of the platelet#/mm^3 |
| Cc1c(-c2ccc(N3CCc4cccc(C(=O)Nc5nc6ncccc6s5)c4C3)nc2C(=O)O)cnn1CC12CC3(C)CC(C)(C1)CC(OCCNCCS(=O)(=O)O)(C3)C2 [Example 1.23, 3-{1-[(3,5-dimethyl-7-{2-[(2-sulfoethyl)amino]ethoxy}tricyclo[3.3.1.1^3,7]dec-1-yl)methyl]-5-methyl-1H-pyrazol-4-yl}-6-[8-([1,3]thiazolo[4,5-b]pyridin-2-ylcarbamoyl)-3,4-dihydroisoquinolin-2 (1H)-yl]pyridine-2-carboxylic acid] | 2720 | 0.1 | 0.006 | 0.24 | EC50 [4]: < 0.5 nM |
| CNCCOC12CC3(C)CC(C)(CC(Cn4ncc(-c5ccc(N6CCc7cccc(C(=O)Nc8nc9ccccc9s8)c7C6)nc5C(=O)O)c4C)(C3)C1)C2 [Example 1.13.7, 6-[8-(1,3-benzothiazol-2-ylcarbamoyl)-3,4-dihydroisoquinolin-2 (1H)-yl]-3-[1-({3,5-dimethyl-7-[2-(methylamino)ethoxy]tricyclo[3.3.1.1^3,7]dec-1-yl}methyl)-5-methyl-1H-pyrazol-4-yl]pyridine-2-carboxylic acid] | – | – | – | – | time of maximal thrombocytopenia following injection [6]: 6 h; thrombocytopenia [6]: caused thrombocytopenia; platelet number after dosing ([6]; dose of 0.61 mg/kg): 6*10^3 /mm^3; decrease of platelet number ([6]; dose of 0.61 mg/kg, from normal count of approximately 6*10^5/mm^3): 100 fold; Lowest thrombocyte count ([6]; dose 0.61 mg/kg): 6 1/10^3 of the platelet#/mm^3; Time to lowest count ([6]; dose 0.61 mg/kg): 6 h |
| Cc1c(-c2ccc(N3CCc4cccc(C(=O)Nc5nc6ccccc6s5)c4C3)nc2C(=O)O)cnn1CC12CC3(C)CC(C)(C1)CC(OCCNC[C@@H](O)[C@@H](O)[C@H](O)CO)(C3)C2 [Example 1.76, 5-{[2-([3-[(4-{6-[8-(1,3-benzothiazol-2-ylcarbamoyl)-3,4-dihydroisoquinolin-2 (1H)-yl]-2-carboxypyridin-3-yl}-5-methyl-1H-pyrazol-1-yl)methyl]-5,7-dimethyltricyclo[3.3.1.1^3,7]dec-1-yl}oxy)ethyl]amino}-5-deoxy-D-arabinitol] | 495 | 1.05 | < 0.01 | 0.26 | – |
| Cc1c(-c2ccc(N3CCc4cccc(C(=O)Nc5nc6ccccc6s5)c4C3)nc2C(=O)O)cnn1CC12CC3CC(CC(C3)C1)C2 [Example A-1331852, reference compound] | – | – | – | – | time of maximal thrombocytopenia following injection [6]: 6 h; thrombocytopenia [6]: caused thrombocytopenia; Lowest thrombocyte count ([6]; dose 25 mg/kg): 9 1/10^3 of the platelet#/mm^3; Time to lowest count ([6]; dose 25 mg/kg): 6 h |

Further compounds by falling EC50 [1], results first:

| EC50 [1] [nM] | Ki [2, 7] [nM] | Ki [2, 8] [nM] | EC50 [3] [nM] | SMILES | other results |
| --- | --- | --- | --- | --- | --- |
| 473 | 0.81 | 0.008 | 0.56 | CNCCOC12CC3(C)CC(C)(CC(Cn4ncc(-c5ccc(N6CCc7c(OCC(=O)O)ccc(C(=O)Nc8nc9ccccc9s8)c7C6)nc5C(=O)O)c4C)(C3)C1)C2 [Example 1.41, 6-[8-(1,3-benzothiazol-2-ylcarbamoyl)-5-(carboxymethoxy)-3,4-dihydroisoquinolin-2 (1H)-yl]-3-[1-({3,5-dimethyl-7-[2-(methylamino)ethoxy]tricyclo[3.3.1.1^3,7]dec-1-yl}methyl)-5-methyl-1H-pyrazol-4-yl]pyridine-2-carboxylic acid] | EC50 [4]: < 0.5 nM |
| 378 | 0.55 | < 0.01 | 0.06 | Cc1c(-c2ccc(-c3ccc4cccc(C(=O)Nc5nc6ccccc6s5)c4c3)nc2C(=O)O)cnn1CC12CC3(C)CC(C)(C1)CC(OCCNCCCO[C@@H]1O[C@H](C(=O)O)[C@@H](O)[C@H](O)[C@H]1O)(C3)C2 [Example 1.87, 3-{[2-({3-[(4-{6-[8-(1,3-benzothiazol-2-ylcarbamoyl)naphthalen-2-yl]-2-carboxypyridin-3-yl)-5-methyl-1H-pyrazol-1-yl)methyl]-5,7-dimethyltricyclo[3.3.1.1^3,7]dec-1-yl}oxy)ethyl]amino}propyl beta-D-glucopyranosiduronic acid] | – |
| 104 | 3.1 | < 0.01 | 0.14 | Cc1c(-c2ccc(N3CCc4cccc(C(=O)Nc5nc6ccccc6s5)c4C3)nc2C(=O)O)cnn1CC12CC3(C)CC(C)(C1)CC(OCCNCC(CO)CO)(C3)C2 [Example 1.79, 6-[8-(1,3-benzothiazol-2-ylcarbamoyl)-3,4-dihydroisoquinolin-2 (1H)-yl]-3-(1-{[3-(2-{[3-hydroxy-2-(hydroxymethyl)propyl]amino}ethoxy)-5,7-dimethyltricyclo[3.3.1.1^3,7]dec-1-yl]methyl}-5-methyl-1H-pyrazol-4-yl)pyridine-2-carboxylic acid] | – |
| 96 | 3 | 0.127 | 0.21 | CNCCOC12CC3(C)CC(C)(CC(Cn4ncc(-c5ccc(-c6ccc7c[n+]([O-])cc(C(=O)Nc8nc9ccccc9s8)c7c6)nc5C(=O)O)c4C)(C3)C1)C2 [Example 1.88, 6-[4-(1,3-benzothiazol-2-ylcarbamoyl)-2-oxidoisoquinolin-6-yl]-3-[1-({3,5-dimethyl-7-[2-(methylamino)ethoxy]tricyclo[3.3.1.1^3,7]dec-1-yl}methyl)-5-methyl-1H-pyrazol-4-yl]pyridine-2-carboxylic acid] | – |
| 78 | 0.4 | 0.016 | 0.07 | Cc1c(-c2ccc(N3CCc4cccc(C(=O)Nc5nc6ccccc6s5)c4C3)nc2C(=O)O)cnn1CC12CC3(C)CC(C)(C1)CC(OCCNCC[C@H](O)CO)(C3)C2 [Example 1.85] | – |
